Experimental data published in publication PMC11981937 (Nature, 2025).
Where “and” joins values, the source holds several entries; their conditions need not be identical. Equal values may be shown once. Entries after “also recorded” stand apart in the source; their conditions may differ. Read-outs that look alike come from different tables or passages of the source.

Assays:
[1] = tested on: Huh7 cells; details: human
[2] = tested on: Pg-CoV; assay: microbe, parasite or virus in culture; format: cell-based; details: Pangolin coronavirus
[3] = tested on: SARS-CoV; assay: microbe, parasite or virus in culture; format: cell-based; details: Severe acute respiratory syndrome coronavirus, Vero
[4] = tested on: MERS-CoV; assay: microbe, parasite or virus in culture; format: cell-based; details: Middle East respiratory syndrome-related coronavirus, Huh-7, read-out: Median EC50
[5] = tested on: SARS-CoV (FFM1 strain); assay: microbe, parasite or virus in culture; format: cell-based; details: Severe acute respiratory syndrome coronavirus
[6] = in vivo; details: dog
[7] = tested on: PDCoV; assay: PDCoV antiviral CPE reduction assay in Huh7 cells; format: cell-based, porcine deltacoronavirus
[8] = in vitro; details: African green monkey
[9] = tested on: SARS-CoV-2; format: in vivo, Syrian golden hamster; details: for Infectious virus in the lung (TCID50), average Log 10 / Infectious virus in the lung (TCID50), median Log 10 / Viral load (viral RNA) in the lung, average Log 10 / Viral load (viral RNA) in the lung, median Log 10 / Infectious virus in the lung (TCID50), Copy number, individual animal / Infectious virus in the lung (TCID50), Log 10, individual animal / Viral load (viral RNA) in the lung, Copy number, individual animal / Viral load (viral RNA) in the lung, Log 10, individual animal: 75 mg/kg BID; for Infectious virus in the lung (TCID50), average Log 10 / Infectious virus in the lung (TCID50), median Log 10 / Viral load (viral RNA) in the lung, average Log 10 / Viral load (viral RNA) in the lung, median Log 10: n=5; for Infectious virus in the lung (TCID50), Copy number, individual animal / Infectious virus in the lung (TCID50), Log 10, individual animal / Viral load (viral RNA) in the lung, Copy number, individual animal / Viral load (viral RNA) in the lung, Log 10, individual animal: listed as 87009676-AAA
[10] = tested on: SARS-CoV-2 (B1 strain); assay: microbe, parasite or virus in culture; format: cell-based; details: Severe acute respiratory syndrome coronavirus 2; SARS-CoV-2 B1, in a variety of cell types
[11] = tested on: HCoV-NL63; assay: HCoV-NL63 CPE reduction assay in LLC-MK2 cells; format: cell-based
[12] = tested on: MHV; assay: MHV antiviral assay in Huh7 cells (luciferase); format: cell-based, mouse hepatitis virus; details: Murine coronavirus, Huh-7, Huh7, MHV (betaCoV), N=2
[13] = tested on: HCoV-229E; assay: microbe, parasite or virus in culture; format: cell-based
[14] = format: in vivo, Syrian golden hamster; details: pre-exposure; for % body weight change compared to day 0, Avg: day 4 vs day 0, group average; for % body weight change compared to day 0: day 4 vs day 0, individual animals
[15] = tested on: IBV; assay: microbe, parasite or virus in culture; format: cell-based, infectious bronchitis virus
[16] = tested on: SARS-CoV-2 (B1); format: cell-based
[17] = in vivo; details: cynomolgus monkey
[18] = target: T1, purified recombinant M protein (Severe acute respiratory syndrome coronavirus 2, UniProt P0DTC5); format: binding, SARS-CoV-2; details: 5 µM compound
T1 construct: SARS-CoV-2 M protein (1–222, UniProt: P0DTC5); ALFA-tag (C); C-tag (EPEA) (C); made in house; host or cells: Expi293F cells (Invitrogen), transient transfection of a pcDNA3.4 construct

[19] = in vivo; details: rat
[20] = target: purified recombinant SARS-CoV-2 M (Severe acute respiratory syndrome coronavirus 2, UniProt P0DTC5); assay: Nano differential scanning fluorimetry (nanoDSF); format: binding; details: 100 µM compound, 0.5 mg/ml M protein, n=3
[21] = in vitro; details: human
[22] = Post-exposure Syrian golden hamster model, body weight; details: in vivo, 75 mg/kg

## C[C@H]1Cn2ncc(C(=O)Nc3cccc(C#N)c3)c2C(=O)N1c1ccc(C(F)(F)c2ccccc2)cc1 [JNJ-9676, (S)-N-(3-cyanophenyl)-5-(4-(difluoro(phenyl)methyl)phenyl)-6-methyl-4-oxo-4,5,6,7-tetrahydropyrazolo[1,5-a]pyrazine-3-carboxamide]
[1]
  CC50: > 30 µM
[2]
  EC50: 0.004 to 0.006 µM
[3]; read-out: Median EC50
  EC50: 0.016 µM
[3]; read-out: Median EC90
  EC90: 0.02 µM
[4]
  EC50: 0.6 µM
[5]; read-out: Median EC50
  EC50: 0.021 µM
[5]; read-out: Median EC90
  EC90: 0.045 µM
[6]
  Vd: 8.2 L/kg
  clearance: < 1.5 mL/min/kg
  half-life: > 40 h
[6]; po
  bioavailability: > 80%
[7]; Coronavirus HKU15, Huh-7, Huh7, PDCoV (deltaCoV), N=2, read-out: Median EC50
  EC50: > 30 µM
[7]; Coronavirus HKU15, Huh-7, Huh7, PDCoV (deltaCoV), N=2, read-out: Median EC90
  EC90: > 30 µM
[7]; PDCoV
  antiviral activity (in words): no activity
[8]
  CC50: > 50 µM
[9]; 10 h post exposure
  Infectious virus in the lung (TCID50), average Log 10: 1.99 Log 10
  Infectious virus in the lung (TCID50), median Log 10: 1.84 Log 10
  Viral load (viral RNA) in the lung, average Log 10: 6.33 Log 10
  Viral load (viral RNA) in the lung, median Log 10: 6.02 Log 10
  Infectious virus in the lung (TCID50), Copy number, individual animal: 3.34E+02 and 6.93E+01 and 7.21E+00 and 6.50E+01 and 8.01E+02
  Infectious virus in the lung (TCID50), Log 10, individual animal: 2.52 Log 10 and 1.84 Log 10 and 0.86 Log 10 and 1.81 Log 10 and 2.90 Log 10
  Viral load (viral RNA) in the lung, Copy number, individual animal: 1.05E+06 and 4.63E+06 and 1.13E+05 and 8.39E+05 and 9.46E+07
  Viral load (viral RNA) in the lung, Log 10, individual animal: 6.02 Log 10 and 6.67 Log 10 and 5.05 Log 10 and 5.92 Log 10 and 7.98 Log 10
[9]; 24 h post exposure
  Infectious virus in the lung (TCID50), average Log 10: 1.64 Log 10
  Infectious virus in the lung (TCID50), median Log 10: 1.62 Log 10
  Viral load (viral RNA) in the lung, average Log 10: 6.39 Log 10
  Viral load (viral RNA) in the lung, median Log 10: 6.81 Log 10
  Infectious virus in the lung (TCID50), Copy number, individual animal: 4.14E+01 and 7.14E+01 and 5.40E+01 and 2.87E+01 and 3.52E+01
  Infectious virus in the lung (TCID50), Log 10, individual animal: 1.62 Log 10 and 1.85 Log 10 and 1.73 Log 10 and 1.46 Log 10 and 1.55 Log 10
  Viral load (viral RNA) in the lung, Copy number, individual animal: 9.36E+06 and 2.59E+04 and 3.10E+05 and 6.49E+06 and 1.85E+08
  Viral load (viral RNA) in the lung, Log 10, individual animal: 6.97 Log 10 and 4.41 Log 10 and 5.49 Log 10 and 6.81 Log 10 and 8.27 Log 10
[9]; 48 h post exposure
  Infectious virus in the lung (TCID50), average Log 10: 1.82 Log 10
  Infectious virus in the lung (TCID50), median Log 10: 1.67 Log 10
  Viral load (viral RNA) in the lung, average Log 10: 7.33 Log 10
  Viral load (viral RNA) in the lung, median Log 10: 7.46 Log 10
  Infectious virus in the lung (TCID50), Copy number, individual animal: 4.79E+01 and 7.10E+02 and 4.67E+01 and 2.27E+01 and 3.31E+01
  Infectious virus in the lung (TCID50), Log 10, individual animal: 1.68 Log 10 and 2.85 Log 10 and 1.67 Log 10 and 1.36 Log 10 and 1.52 Log 10
  Viral load (viral RNA) in the lung, Copy number, individual animal: 5.20E+06 and 3.10E+06 and 6.15E+07 and 1.50E+08 and 2.86E+07
  Viral load (viral RNA) in the lung, Log 10, individual animal: 6.72 Log 10 and 6.49 Log 10 and 7.79 Log 10 and 8.18 Log 10 and 7.46 Log 10
[9]; hamster, in vivo
  efficacy (in words): efficacious; also recorded: significant efficacy
  reduction of infectious virus in the lung: 1.8 log10[TCID50 per mg lung]
[9]; hamster, in vivo, 75 mg/kg
  Infectious virus in the lung, reduction relative to vehicle: 1.65 (p=0.0003) log10 TCID50/mg lung and 2.00 (p<0.0001) log10 TCID50/mg lung and 1.83 (p<0.0001) log10 TCID50/mg lung and 1.65 (p=0.0003) log10 TCID50/mg lung and 2.00 (p<0.0001) log10 TCID50/mg lung and 1.83 (p<0.0001) log10 TCID50/mg lung
  Viral load in the lung, reduction relative to vehicle: 2.38 (p=0.0004) log10 copies/mg lung and 2.32 (p=0.0005) log10 copies/mg lung and 1.38 (p>0.05) log10 copies/mg lung and 2.38 (p=0.0004) log10 copies/mg lung and 2.32 (p=0.0005) log10 copies/mg lung and 1.38 (p>0.05) log10 copies/mg lung
[10]
  EC50: 0.014 to 0.022 µM
[11]; HCoV-NL63
  antiviral activity (in words): no activity
[11]; Human coronavirus NL63, LLC-MK2, HCoV-NL63 (alphaCoV), N=2, read-out: Median EC50
  EC50: > 20 µM
[11]; Human coronavirus NL63, LLC-MK2, HCoV-NL63 (alphaCoV), N=2, read-out: Median EC90
  EC90: > 20 µM
[12]; read-out: Median EC50
  EC50: 3.4 µM
[12]; read-out: Median EC90
  EC90: 12.4 µM
[13]; Human coronavirus 229E, Huh-7, read-out: Median EC50
  EC50: > 30 µM
[13]; Human coronavirus 229E, Huh-7, read-out: Median EC90
  EC90: > 30 µM
[13]; […], cell type not given
  antiviral activity (in words): no activity
[14]; JNJ-9676 8.33 mpk BID
  % body weight change compared to day 0, Avg: 1.86%
[14]; JNJ-9676 8.33 mpk BID, 8.33 mg/kg
  % body weight change compared to day 0: 2.5% and 0.6% and 1.8% and 3% and 1.4%
[14]; JNJ-9676 25 mpk BID
  % body weight change compared to day 0, Avg: 5.08%
[14]; JNJ-9676 25 mpk BID, 25 mg/kg
  % body weight change compared to day 0: 3.8% and 4.1% and 7.5% and 7.1% and 2.9%
[14]; JNJ-9676 75 mpk BID
  % body weight change compared to day 0, Avg: 2.14%
[14]; JNJ-9676 75 mpk BID, 75 mg/kg
  % body weight change compared to day 0: -0.3% and 0.3% and 3.9% and 4.1% and 2.7%
[15]; Avian coronavirus, Huh-7, read-out: Median EC50
  EC50: 8 µM
[15]; Avian coronavirus, Huh-7, read-out: Median EC90
  EC90: > 30 µM
[15]; gammacoronavirus IBV
  potency (in words): single-digit micromolar potency
[16]
  biogenesis of infectious progeny: inhibited completely
[17]
  Vd: 5.1 L/kg
  clearance: 1.9 mL/min/kg
  half-life: 35 h
[17]; po
  bioavailability: > 30%
[18]
  compound recovery with M-protein:Fab B complex compared to M protein alone or M-protein:Fab E complex: significantly higher
[18]; 5 µM M protein
  compound recovery with M protein relative to buffer-only control: reproducible JNJ-9676 recovery
[19]
  Vd: 8.4 L/kg
  clearance: 5.2 mL/min/kg
  half-life: 19 h
[19]; po
  bioavailability: > 70%
[20]
  Tm: 54.1 ± 0.1 °C
  ΔTm (stabilization in melting temperature): 0.9 °C
[21]; Median CC50
  CC50: > 20 µM
[21]; Median CC50, Huh7, line of MHV, N=2
  CC50: > 20 µM
[21]; Median CC50, Huh7, line of PDCoV, N=2
  CC50: > 30 µM
[22]
  Average body weight change (%) on day 4 compared to day 0: -0.615% and -5.840% and -3.968%
